In US7829560B2, “1,4-disubstituted naphthalenes as inhibitors of P38 MAP kinase” (Arqule, Inc., priority 2004, dated 2010) one finds inhibition and IC50 data, which are given here for 40 molecules.

In the assay the target is T1, p38α (Homo sapiens, UniProt Q16539).
T1 construct: p38 MAP Kinases are recombinant human full-length proteins with an amino-terminal GST fusion; GST (N); purchased Upstate Biotechnology Inc; host or cells: E. coli
In words: p38 MAP Kinase assay: inhibition of ATF2 phosphorylation, ELISA. The class given is biochemical. The note with it: for inhibition at 10 µM: substrate ATF2, read-out: [ENZ] P38 ALPHA, PCT INH, ELISA (10 uM;ATF2) (Percent); for IC50: ATF2 phosphorylation, read-out: [ENZ] P38 ALPHA, IC50, ELISA. An excerpt: Compounds of the invention are screened for the ability to inhibit ATF2 phosphorylation by p38 MAP Kinase in vitro. The ability of compounds to inhibit ATF2 phosphorylation in this in vitro assay is correlated with the inhibition of p38 MAP Kinase and TNFα expression in vivo, and is therefore an indicator of potential in vivo therapeutic activity (Raingeaud, J., et al, J. Biol. Chem., 270: 7420-7426, 1995, Brinkman, M. N., et al, J. Biol. Chem. 274: 30882-30886, 1999 and Fuchs, S. Y. et al, J. Biol. Chem. 275: 12560-12564, 2000).
Materials: All kinases and the substrate ATF2 are acquired from Upstate Biotechnology Inc. p38 MAP Kinases are recombinant human full-length proteins with an amino-terminal GST fusion, expressed in and purified from E. coli. ATF2 is a GST fusion protein containing amino acids 19-96 of human ATF2 expressed in E. coli. All proteins are aliquoted and stored at −80° C.
Methods: p38 MAP Kinase assays are performed using an assay buffer containing 25 mM HEPES, pH 7.5, 10 mM MgCl2, 2 mM DTT, 20 mM β-glycerophosphate, 0.1 mM Na3VO4, 40 μM ATP and 1.25 μM of ATF2 and in the absence or presence of 1% human serum albumin, Method I and II, respectively, with 0.4-6 ng of protein depending on the kinase used. Compounds are serially diluted in DMSO and 2 μL of test compound at 25× final concentration is used. The vehicle control receives DMSO only. Test compounds are pre-incubated with 20 μl of enzyme in kinase buffer (25 mM HEPES, pH 7.5, 10 mM MgCl2, 2 mM DTT, 20 mM β-glycerophosphate, 0.1 mM Na3VO4 in the absence or presence of 1% human serum albumin, Method I and II, respectively) at room temperature for 15 minutes. […] The reactions are incubated for 30 minutes at 37° C. and terminated by the addition of 18 μl of 200 mM EDTA. An ELISA method (I or II) is used to measure the phosphorylation of ATF2 at Thr 69. Method I: 96-well high binding plates (Corning 3369) are coated with 50 μl of kinase reaction for 1 hour at 37° C. The coated plates are washed with 200 μl washing buffer (25 mM Tris HCl, pH 8.3, 192 mM glycine, 0.1% SDS and 0.05% Tween-20) three times. The plates are then washed three times with SuperBlock in TBS (Pierce, 37535). After blocking, plates are incubated with 50 μl of rabbit anti-phospho-ATF2 antibody (Cell Signaling, 9221L, 1:500) for 30 minutes at 37° C. Plates are washed three times with washing buffer prior to incubation with 50 μl HRP-conjugated goat anti-rabbit antibody (Cell Signaling, 7074, 1:500) for 30 minutes at 37° C. Plates are then washed three times with washing buffer before incubation with 50 μl of Ultra TMB-ELISA (Pierce, 34028) for 8 minutes at room temperature. Finally, 50 ul of phosphoric acid (1 M) is added to stop reactions and plate absorbance is read at 450 nm on a SpectraMax 250 plate reader. Method II: 96-well high binding plates (Corning 3369) are coated with 400 ng of monoclonal antibody against GST-tag (Cell signaling) in 100 μl containing sodium borate (pH 8.3) for 90 minutes at 37° C. The plates are washed with 200 μl washing buffer (25 mM Tris HCl, pH 7.2, 150 mM NaCl and Tween-20) three times and blocked with 200 μl of 5% nonfat milk for 30 minutes at room temperature. The plates are washed three times with washing buffer, 50 μl of stopped kinase reaction are added to each well and incubated for 80 minutes at 37° C. The plates are washed three times with 200 μl washing buffer, and the plates are incubated with 50 μl of rabbit anti-phospho-ATF2 antibody (Cell Signaling, 9221L, 1:500) for 30 minutes at 37° C. Plates are washed three times with washing buffer prior to incubation with 50 μl HRP-conjugated goat anti-rabbit antibody (Cell Signaling, 7074, 1:500) for 30 minutes at 37° C. Plates are washed three times with washing buffer before incubation with 50 μl of Ultra TMB-ELISA (Pierce, 34028) for 25 minutes at room temperature. Finally, 50 μl of phosphoric acid (1 M) is added to stop reactions and plate absorbance is read at 450 nm on a SpectraMax 250 plate reader. […]
Background: In an ELISA, binding on a coated surface is turned into a signal by an enzyme label.

A value given as a limit tells only on which side of the number the result lay.

T1 sequence (Q16539 whole entry, the tested form may be a part): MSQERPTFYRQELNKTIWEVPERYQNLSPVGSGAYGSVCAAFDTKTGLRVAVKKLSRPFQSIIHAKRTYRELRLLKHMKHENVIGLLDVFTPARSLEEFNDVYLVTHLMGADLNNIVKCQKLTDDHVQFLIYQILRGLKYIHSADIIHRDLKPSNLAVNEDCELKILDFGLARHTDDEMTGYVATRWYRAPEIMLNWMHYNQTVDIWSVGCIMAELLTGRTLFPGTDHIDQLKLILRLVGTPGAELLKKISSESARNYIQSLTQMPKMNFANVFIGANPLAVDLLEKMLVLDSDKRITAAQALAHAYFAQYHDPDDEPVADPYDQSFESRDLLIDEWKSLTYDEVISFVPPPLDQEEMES

`CC(C)(C)c1ccc(-c2cccc(C(=O)Nc3ccc(OCCN4CCOCC4)c4ccccc34)c2)cc1` [Compound B106]: the inhibition at 10 µM was 0%.
For `CCOc1ccc(-c2cccc(C(=O)Nc3ccc(OCCN4CCOCC4)c4ccccc34)c2)cc1` [Compound B107], the inhibition at 10 µM is 2%.
For orientation: IC50 means the concentration that inhibits the measured activity by half. As for `CCOc1ccccc1-c1cccc(C(=O)Nc2ccc(OCCN3CCOCC3)c3ccccc23)c1` [Compound B109], the inhibition at 10 µM amounted to 52% and the IC50 stood at 4.07 µM.
In the case of `COc1ccc(Cl)cc1-c1cccc(C(=O)Nc2ccc(OCCN3CCOCC3)c3ccccc23)c1` [Compound B111], the inhibition at 10 µM was 50% and the IC50 amounted to 5.06 µM.
Take `COc1cc(-c2cccc(C(=O)Nc3ccc(OCCN4CCOCC4)c4ccccc34)c2)cc(OC)c1OC` [Compound B112]: the inhibition at 10 µM was found to be 15% and the IC50 was over 100 µM.
With `Cc1cc(C)cc(-c2cccc(C(=O)Nc3ccc(OCCN4CCOCC4)c4ccccc34)c2)c1` [Compound B113], the inhibition at 10 µM worked out at 29% and the IC50 was over 10 µM.
Turning to `Cc1ccc(-c2cccc(C(=O)Nc3ccc(OCCN4CCOCC4)c4ccccc34)c2)c2ccccc12` [Compound B114], the inhibition at 10 µM worked out at 11.3%.
As for `O=C(Nc1ccc(OCCN2CCOCC2)c2ccccc12)c1cccc(-c2ccccc2Oc2ccccc2)c1` [Compound B115], the inhibition at 10 µM is 10%.
As for `CSc1ccccc1-c1cccc(C(=O)Nc2ccc(OCCN3CCOCC3)c3ccccc23)c1` [Compound B116], the inhibition at 10 µM worked out at 54% and the concentration for half-maximal inhibition (IC50) turned out to be 2.74 µM.
On to `CCCCc1ccc(-c2cccc(C(=O)Nc3ccc(OCCN4CCOCC4)c4ccccc34)c2)cc1` [Compound B117], for which the inhibition at 10 µM worked out at 4%.
On the same count and under the same terms, under `O=C(Nc1ccc(OCCN2CCOCC2)c2ccccc12)c1cccc(-c2ccc(C3CCCCC3)cc2)c1` [Compound B118] stands 0%.
For the molecule `O=C(Nc1ccc(OCCN2CCOCC2)c2ccccc12)c1cccc(-c2cccc(OCc3ccccc3)c2)c1` [Compound B119], the inhibition at 10 µM was 11% and the IC50 was over 100 µM.
Take `O=C(Nc1ccc(OCCN2CCOCC2)c2ccccc12)c1cccc(-c2cc(Cl)cc(Cl)c2Cl)c1` [Compound B120]: the inhibition at 10 µM stood at 39% and the IC50 was over 100 µM.
As for `O=C(Nc1ccc(OCCN2CCOCC2)c2ccccc12)c1ccnc(N2CCc3ccccc3C2)c1` [Compound B121], the inhibition at 10 µM was 31.5%.
For `O=C(Nc1ccc(OCCN2CCOCC2)c2ccccc12)c1ccnc(N2CCC(Cc3ccccc3)CC2)c1` [Compound B124], the inhibition at 10 µM worked out at 7%.
As to `O=C(Nc1ccc(OCCN2CCOCC2)c2ccccc12)c1ccnc(N2CCC(N3CCCC3)CC2)c1` [Compound B125], the inhibition at 10 µM was found to be 23.5%.
On to `O=C(Nc1ccc(OCCN2CCOCC2)c2ccccc12)c1ccnc(N2CCC(N3CCCCC3)CC2)c1` [Compound B129], for which the inhibition at 10 µM is 19.5%.
With `O=C(Nc1ccc(OCCN2CCOCC2)c2ccccc12)c1ccnc(N2CCC(CO)CC2)c1` [Compound B131], the inhibition at 10 µM came to 34%.
Consider `O=C(Nc1ccc(OCCN2CCOCC2)c2ccccc12)c1ccnc(N2Cc3ccccc3C2)c1` [Compound B132], for which the inhibition at 10 µM came to 36%.
For `O=C(Nc1ccc(OCCN2CCOCC2)c2ccccc12)c1cccc(N2CCOCC2)n1` [Compound B134], the inhibition at 10 µM was determined as 20%.
For the molecule `O=C(Nc1ccc(OCCN2CCOCC2)c2ccccc12)c1cccc(N2CCCCCCC2)n1` [Compound B135], the inhibition at 10 µM was determined as 20% and the IC50 is over 100 µM.
As to `CC(=O)N1CCN(c2cccc(C(=O)Nc3ccc(OCCN4CCOCC4)c4ccccc34)n2)CC1` [Compound B136], the inhibition at 10 µM was 10%.
Regarding `CN(c1cccc(C(=O)Nc2ccc(OCCN3CCOCC3)c3ccccc23)n1)C1CCCCC1` [Compound B137], the inhibition at 10 µM worked out at 32% and the IC50 was over 100 µM.
With `O=C(Nc1ccc(OCCN2CCOCC2)c2ccccc12)c1cccc(N2CCSC2)n1` [Compound B138], the inhibition at 10 µM was -36%.
Consider `O=C(Nc1ccc(OCCN2CCOCC2)c2ccccc12)c1cccc(N2CCN(c3ccc(F)cc3)CC2)n1` [Compound B139], for which the inhibition at 10 µM came to 7%.
Same read-out and setting: under `O=C(Nc1ccc(OCCN2CCOCC2)c2ccccc12)c1cccc(N2CCC(Cc3ccccc3)CC2)n1` [Compound B140] stands 4%.
Regarding `CC1CC(C)CN(c2cccc(C(=O)Nc3ccc(OCCN4CCOCC4)c4ccccc34)n2)C1` (centres unmarked) [Compound B141], the inhibition at 10 µM was 13%.
For the molecule `O=C(Nc1ccc(OCCN2CCOCC2)c2ccccc12)c1cccc(N2CCCCC2)n1` [Compound B142], the inhibition at 10 µM worked out at 33% and the IC50 was over 100 µM.
The like results for `CC1CCN(c2cccc(C(=O)Nc3ccc(OCCN4CCOCC4)c4ccccc34)n2)CC1` [Compound B143] were, in that order, 32% and over 100 µM.
Regarding `CC1CCCN1c1cccc(C(=O)Nc2ccc(OCCN3CCOCC3)c3ccccc23)n1` (centres unmarked) [Compound B144], the inhibition at 10 µM is 17%.
Take `O=C(Nc1ccc(OCCN2CCOCC2)c2ccccc12)c1cccc(N2CCC(CO)CC2)n1` [Compound B145]: the inhibition at 10 µM came to 11%.
As to `Cc1cccc(C)c1N1CCN(c2cccc(C(=O)Nc3ccc(OCCN4CCOCC4)c4ccccc34)n2)CC1` [Compound B146], the inhibition at 10 µM came out at 7.5%.
In the case of `CC(C)(C)CCNc1cccc(C(=O)Nc2ccc(OCCN3CCOCC3)c3ccccc23)n1` [Compound B147], the inhibition at 10 µM is 12%.
With `CCN(C)c1cccc(C(=O)Nc2ccc(OCCN3CCOCC3)c3ccccc23)n1` [Compound B148], the inhibition at 10 µM came out at 15.5%.
On to `CCC(C)N(C)c1cccc(C(=O)Nc2ccc(OCCN3CCOCC3)c3ccccc23)n1` (centres unmarked) [Compound B149], for which the inhibition at 10 µM is 8.5%.
`Cc1cc(C(=O)Nc2ccc(OCCN3CCOCC3)c3ccccc23)cc(N2CCc3ccccc3C2)n1` [Compound B150]: the inhibition at 10 µM was determined as 15% and the IC50 was over 100 µM.
With `Cc1cc(C(=O)Nc2ccc(OCCN3CCOCC3)c3ccccc23)cc(N2CCSC2)n1` [Compound B151], the inhibition at 10 µM is 0%.
On to `Cc1cc(C(=O)Nc2ccc(OCCN3CCOCC3)c3ccccc23)cc(N2CCC(N3CCCC3)CC2)n1` [Compound B152], for which the inhibition at 10 µM was 0%.
For `Cc1cc(C(=O)Nc2ccc(OCCN3CCOCC3)c3ccccc23)cc(N2CCCC2c2ccccc2Cl)n1` (centres unmarked) [Compound B156], the inhibition at 10 µM is 19% and the IC50 was over 100 µM.
As to `CCN(C)c1cc(C(=O)Nc2ccc(OCCN3CCOCC3)c3ccccc23)cc(C)n1` [Compound B157], the inhibition at 10 µM amounted to 8%.
